Experimental data published in ChEMBL document CHEMBL4311992, “Discovery of 3-(((9H-purin-6-yl)amino)methyl)-4,6-dimethylpyridin-2(1H)-one derivatives as novel tubulin polymerization inhibitors for treatment of cancer” (Eur J Med Chem, 2019).

Assays:
[1] = Toxicity in Balb/c mouse lung at 80 mg/kg after 4 weeks by hematoxylin and eosin staining-based assay; assay type: organism-based; settings: in vivo, 672 h
[2] = target: Serine/threonine-protein kinase PAK 3 (Homo sapiens) (UniProt O75914); experiment: Inhibition of recombinant full-length human PAK3 assessed as residual activity at 10 uM using RRRLSFAEPG as substrate measured after 40 mins in presence of [gamma33P]ATP by scintillation counting method
HCT-116 [3] = experiment: Induction of apoptosis in human HCT116 cells assessed as necrotic cells at 100 nM measured after 48 hrs by Annexin V-FITC/propidium iodide staining-based flow cytometry (reference value: 1.16%); assay type: functional
[4] = target: Casein kinase II subunit alpha (Homo sapiens) (UniProt P68400); experiment: Inhibition of recombinant full length human CK2alpha1 assessed as residual activity at 10 uM using RRRDDDSDDD as substrate measured after 40 mins in presence of [gamma33P]ATP by scintillation counting method
Chain of Casein kinase II subunit alpha (Homo sapiens) (P68400 whole entry, looked up, the tested form may be a part): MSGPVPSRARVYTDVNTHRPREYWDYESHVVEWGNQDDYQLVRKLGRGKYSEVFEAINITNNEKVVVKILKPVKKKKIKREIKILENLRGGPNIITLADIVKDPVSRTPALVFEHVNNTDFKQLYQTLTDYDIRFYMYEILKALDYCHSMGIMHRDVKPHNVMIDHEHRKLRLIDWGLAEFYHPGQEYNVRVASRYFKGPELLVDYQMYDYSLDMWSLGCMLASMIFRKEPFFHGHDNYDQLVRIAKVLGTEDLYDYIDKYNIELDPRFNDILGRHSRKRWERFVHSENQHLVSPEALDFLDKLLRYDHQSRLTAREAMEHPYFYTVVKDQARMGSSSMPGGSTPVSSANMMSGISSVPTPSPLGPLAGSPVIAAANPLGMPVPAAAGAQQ

HCT-116 [5] = experiment: cells; settings: Homo sapiens, HCT-116, 72 h
Description: Antiproliferative activity against human HCT116 cells after 72 hrs by MTT assay

[6] = target: Protein kinase C iota type (Homo sapiens) (UniProt P41743); experiment: Inhibition of recombinant full-length human PKCiota assessed as residual activity at 10 uM using ERMRPRKRQGSVRRRV as substrate measured after 40 mins in presence of [gamma33P]ATP by scintillation counting method
Chain of Protein kinase C iota type (Homo sapiens) (P41743 whole entry): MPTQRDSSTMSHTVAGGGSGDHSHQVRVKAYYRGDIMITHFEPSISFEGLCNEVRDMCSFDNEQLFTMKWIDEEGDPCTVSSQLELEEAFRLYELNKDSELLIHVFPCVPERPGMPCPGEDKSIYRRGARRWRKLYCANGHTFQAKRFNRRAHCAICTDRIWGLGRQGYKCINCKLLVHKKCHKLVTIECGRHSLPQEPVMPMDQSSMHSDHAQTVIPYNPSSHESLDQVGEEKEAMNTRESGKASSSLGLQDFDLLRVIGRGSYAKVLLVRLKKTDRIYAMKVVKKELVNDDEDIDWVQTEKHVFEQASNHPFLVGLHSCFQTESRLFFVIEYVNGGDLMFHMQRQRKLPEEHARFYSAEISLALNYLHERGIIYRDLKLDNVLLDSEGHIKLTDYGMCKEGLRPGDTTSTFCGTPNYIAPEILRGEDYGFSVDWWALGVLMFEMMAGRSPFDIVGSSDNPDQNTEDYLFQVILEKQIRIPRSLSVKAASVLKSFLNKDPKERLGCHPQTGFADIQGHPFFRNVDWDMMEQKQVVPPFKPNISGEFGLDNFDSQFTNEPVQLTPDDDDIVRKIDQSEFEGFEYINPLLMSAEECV

SW-620 [7] = experiment: Induction of apoptosis in human SW620 cells assessed as viable cells at 25 nM measured after 48 hrs by Annexin V-FITC/propidium iodide staining-based flow cytometry (reference value: 94.7%); assay type: functional; settings: SW-620, 48 h, read-out: Activity
[8] = target: Mitogen-activated protein kinase kinase kinase 7 (Homo sapiens) (UniProt O43318); experiment: Inhibition of human TAK1 (1 to 303 residues) using casein as substrate measured after 40 mins in presence of [gamma33P]ATP by scintillation counting method; set-up: scale not given: the % may be the effect or the level left
[9] = target: CDK4/Cyclin D3 (Homo sapiens) (UniProt P11802+P30281); experiment: Inhibition of recombinant full-length human CDK4/cyclinD3 assessed as residual activity at 10 uM using Rb fragment as substrate measured after 40 mins in presence of [gamma33P]ATP by scintillation counting method; assay type: protein-complex assay
Homo sapiens = species: Homo sapiens; experiment: Inhibition of recombinant human BrSK2 S251I mutant (2 to end residues) assessed as residual activity at 10 uM using KKLNRTLSFAEPG as substrate measured after 40 mins in presence of [gamma33P]ATP by scintillation counting method
[10] = target: Casein kinase II subunit alpha (Homo sapiens) (UniProt P68400); experiment: Inhibition of recombinant full length human CK2alpha2 assessed as residual activity at 10 uM using RRRDDDSDDD as substrate measured after 40 mins in presence of [gamma33P]ATP by scintillation counting method
[11] = target: Phosphatidylinositol 4-phosphate 3-kinase C2 domain-containing subunit alpha (Homo sapiens) (UniProt O00443); experiment: Inhibition of recombinant human PI3KC2alpha (299 to end residues) assessed as residual activity at 10 uM using phosphatidylinositol as substrate measured after 40 mins by HTRF assay
[12] = target: Mitogen-activated protein kinase 12 (Homo sapiens) (UniProt P53778); experiment: Inhibition of recombinant full-length human SAPK3 assessed as residual activity at 10 uM using myelin basic protein as substrate measured after 40 mins in presence of [gamma33P]ATP by scintillation counting method
Chain of Mitogen-activated protein kinase 12 (Homo sapiens) (P53778 whole entry): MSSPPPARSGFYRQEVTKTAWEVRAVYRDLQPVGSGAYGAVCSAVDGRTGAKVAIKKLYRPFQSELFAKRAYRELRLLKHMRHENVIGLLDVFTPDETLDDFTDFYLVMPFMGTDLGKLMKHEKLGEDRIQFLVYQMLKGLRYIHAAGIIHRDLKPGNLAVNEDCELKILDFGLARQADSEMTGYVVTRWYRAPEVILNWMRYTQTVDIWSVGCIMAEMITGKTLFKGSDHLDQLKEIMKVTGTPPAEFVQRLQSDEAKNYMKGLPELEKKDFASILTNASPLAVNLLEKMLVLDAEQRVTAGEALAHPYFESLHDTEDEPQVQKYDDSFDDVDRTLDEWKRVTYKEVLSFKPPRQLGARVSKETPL

[13] = target: Cytoplasmic tyrosine-protein kinase BMX (Homo sapiens) (UniProt P51813); experiment: Inhibition of full-length recombinant human BMX assessed as residual activity at 10 uM using poly(Glu, Tyr) 4:1 as substrate measured after 40 mins in presence of [gamma33P]ATP by scintillation counting method
HCT-116 [14] = experiment: Antitumor activity against human HCT116 cells xenografted in nude BALB/c mouse assessed as tumor growth inhibition at 40 mg/kg, po administered once daily for 4 weeks measured post-last dose relative to control; assay type: functional; settings: HCT-116, po, 672 h, read-out: TGI
[15] = target: Serine/threonine-protein kinase STK11 (Homo sapiens) (UniProt Q15831); experiment: Inhibition of recombinant full-length human LKB1 assessed as residual activity at 10 uM using LSNLYHQGKFLQTFCGSPLYRRR as substrate measured after 40 mins in presence of [gamma33P]ATP by scintillation counting method
Chain of Serine/threonine-protein kinase STK11 (Homo sapiens) (Q15831 whole entry): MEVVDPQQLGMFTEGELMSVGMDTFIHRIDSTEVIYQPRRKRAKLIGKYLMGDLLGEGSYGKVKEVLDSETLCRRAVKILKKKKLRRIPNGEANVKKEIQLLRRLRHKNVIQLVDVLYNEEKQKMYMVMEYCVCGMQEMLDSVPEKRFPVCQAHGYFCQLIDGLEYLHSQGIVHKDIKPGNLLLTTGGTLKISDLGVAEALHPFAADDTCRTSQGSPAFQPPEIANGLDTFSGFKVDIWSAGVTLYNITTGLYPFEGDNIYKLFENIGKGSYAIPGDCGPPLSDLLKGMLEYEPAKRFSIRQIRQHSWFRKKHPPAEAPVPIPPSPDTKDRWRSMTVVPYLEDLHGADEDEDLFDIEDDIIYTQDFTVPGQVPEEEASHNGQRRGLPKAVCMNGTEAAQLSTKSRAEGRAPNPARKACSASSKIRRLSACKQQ

[16] = target: Tyrosine-protein kinase CSK (Homo sapiens) (UniProt P41240); experiment: Inhibition of full-length recombinant human CSK assessed as residual activity at 10 uM using poly(Glu, Tyr) 4:1 as substrate measured after 40 mins in presence of [gamma33P]ATP by scintillation counting method
[17] = tested on: Glycogen synthase kinase-3 beta (Homo sapiens), P49841 [UNDEFINED MUTATION]; experiment: Inhibition of recombinant human GSK3beta H350L mutant (2 to end residues) assessed as residual activity at 10 uM using phospho GS2 peptide as substrate measured after 40 mins in presence of [gamma33P]ATP by scintillation counting method
Chain of Glycogen synthase kinase-3 beta (Homo sapiens), P49841 [UNDEFINED MUTATION] (P49841 whole entry, looked up, stated change not applied, the tested form may be a part): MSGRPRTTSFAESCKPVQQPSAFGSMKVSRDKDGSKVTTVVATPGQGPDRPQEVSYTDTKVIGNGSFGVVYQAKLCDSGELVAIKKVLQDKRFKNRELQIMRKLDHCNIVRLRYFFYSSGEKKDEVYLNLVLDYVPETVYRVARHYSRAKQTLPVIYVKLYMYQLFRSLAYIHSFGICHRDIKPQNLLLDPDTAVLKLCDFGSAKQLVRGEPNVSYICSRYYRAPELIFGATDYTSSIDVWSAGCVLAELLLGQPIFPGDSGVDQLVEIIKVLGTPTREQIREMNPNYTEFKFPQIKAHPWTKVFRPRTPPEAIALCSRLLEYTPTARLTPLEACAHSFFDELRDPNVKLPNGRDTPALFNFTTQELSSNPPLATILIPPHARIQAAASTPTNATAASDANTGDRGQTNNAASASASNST

[18] = target: Serine/threonine-protein kinase MRCK beta (Homo sapiens) (UniProt Q9Y5S2); experiment: Inhibition of recombinant human MRCKbeta (1 to 473 residues) assessed as residual activity at 10 uM using KKRNRTLTV as substrate measured after 40 mins in presence of [gamma33P]ATP by scintillation counting method
Chain of Serine/threonine-protein kinase MRCK beta (Homo sapiens) (Q9Y5S2 whole entry, the tested form may be a part): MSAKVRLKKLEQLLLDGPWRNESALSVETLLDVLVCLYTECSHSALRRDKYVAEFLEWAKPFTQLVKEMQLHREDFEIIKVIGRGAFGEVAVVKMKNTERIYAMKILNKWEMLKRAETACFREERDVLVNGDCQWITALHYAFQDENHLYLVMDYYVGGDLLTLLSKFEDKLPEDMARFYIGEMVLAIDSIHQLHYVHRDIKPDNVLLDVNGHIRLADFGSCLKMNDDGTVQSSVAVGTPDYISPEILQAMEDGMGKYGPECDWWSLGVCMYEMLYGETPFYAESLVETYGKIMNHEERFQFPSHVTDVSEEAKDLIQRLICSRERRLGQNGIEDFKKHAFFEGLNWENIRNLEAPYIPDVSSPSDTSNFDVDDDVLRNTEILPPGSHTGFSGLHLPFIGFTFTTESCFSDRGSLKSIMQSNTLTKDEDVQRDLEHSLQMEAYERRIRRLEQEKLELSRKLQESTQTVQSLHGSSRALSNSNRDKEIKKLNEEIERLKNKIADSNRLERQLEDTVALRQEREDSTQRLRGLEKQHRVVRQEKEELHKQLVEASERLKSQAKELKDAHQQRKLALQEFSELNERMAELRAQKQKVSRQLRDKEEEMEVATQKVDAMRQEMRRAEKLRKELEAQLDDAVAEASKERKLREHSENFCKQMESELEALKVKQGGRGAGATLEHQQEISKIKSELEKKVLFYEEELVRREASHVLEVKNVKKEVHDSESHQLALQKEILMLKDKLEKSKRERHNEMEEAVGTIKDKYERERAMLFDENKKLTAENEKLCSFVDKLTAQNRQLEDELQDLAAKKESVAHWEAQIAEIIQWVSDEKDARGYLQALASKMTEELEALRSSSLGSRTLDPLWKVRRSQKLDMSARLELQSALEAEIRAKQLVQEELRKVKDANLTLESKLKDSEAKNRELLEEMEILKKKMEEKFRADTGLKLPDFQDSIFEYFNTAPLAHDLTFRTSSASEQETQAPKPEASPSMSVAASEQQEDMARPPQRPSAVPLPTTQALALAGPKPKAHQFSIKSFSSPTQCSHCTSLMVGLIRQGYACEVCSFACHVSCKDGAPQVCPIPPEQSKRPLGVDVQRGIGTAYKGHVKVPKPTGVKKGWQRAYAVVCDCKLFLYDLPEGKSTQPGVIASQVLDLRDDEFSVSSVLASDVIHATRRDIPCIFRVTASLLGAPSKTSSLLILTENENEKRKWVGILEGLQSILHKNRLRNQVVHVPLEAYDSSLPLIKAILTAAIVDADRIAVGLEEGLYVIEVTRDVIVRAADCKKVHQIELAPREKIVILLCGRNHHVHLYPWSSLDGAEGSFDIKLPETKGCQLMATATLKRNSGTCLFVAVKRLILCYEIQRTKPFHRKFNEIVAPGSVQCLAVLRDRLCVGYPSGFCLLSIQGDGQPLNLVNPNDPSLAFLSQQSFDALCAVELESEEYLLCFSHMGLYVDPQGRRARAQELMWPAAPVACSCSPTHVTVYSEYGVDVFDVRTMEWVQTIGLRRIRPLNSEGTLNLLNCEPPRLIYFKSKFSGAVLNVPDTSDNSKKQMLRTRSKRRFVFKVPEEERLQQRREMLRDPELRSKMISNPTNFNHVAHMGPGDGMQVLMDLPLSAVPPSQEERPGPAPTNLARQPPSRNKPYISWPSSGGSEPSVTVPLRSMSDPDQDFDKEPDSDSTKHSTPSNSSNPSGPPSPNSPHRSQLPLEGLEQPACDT

[19] = target: Death-associated protein kinase 1 (Homo sapiens) (UniProt P53355); experiment: Inhibition of recombinant human DAPK1 (1 to 296 residues) assessed as residual activity at 10 uM using KKLNRTLSFAEPG as substrate measured after 40 mins in presence of [gamma33P]ATP by scintillation counting method
[20] = tested on: RAF proto-oncogene serine/threonine-protein kinase (Homo sapiens), P04049 [Y340D,Y341D]; experiment: Inhibition of recombinant human c-RAF Y340D/Y341D mutant (360 to end residues) assessed as residual activity at 10 uM using inactive MEK1 as substrate measured after 40 mins in presence of [gamma33P]ATP by scintillation counting method
SW-620 [21] = experiment: Induction of apoptosis in human SW620 cells assessed as viable cells at 100 nM measured after 48 hrs by Annexin V-FITC/propidium iodide staining-based flow cytometry (reference value: 94.7%); assay type: functional; settings: SW-620, 48 h, read-out: Activity
[22] = Toxicity in nude BALB/c mouse xenografted with human HCT116 cells assessed as change in body weight at 40 mg/kg, po administered once daily for 4 weeks measured every 3 days during compound dosing; assay type: organism-based; settings: in vivo
[23] = target: Serine/threonine-protein kinase D2 (Homo sapiens) (UniProt Q9BZL6); experiment: Inhibition of recombinant full-length human PKD2 assessed as residual activity at 10 uM using KKLNRTLSVA as substrate measured after 40 mins in presence of [gamma33P]ATP by scintillation counting method
[24] = target: Tyrosine-protein kinase Fes/Fps (Homo sapiens) (UniProt P07332); experiment: Inhibition of recombinant human FES (2 to end residues) assessed as residual activity at 10 uM using poly(Glu, Tyr) 4:1 as substrate measured after 40 mins in presence of [gamma33P]ATP by scintillation counting method
Chain of Tyrosine-protein kinase Fes/Fps (Homo sapiens) (P07332 whole entry): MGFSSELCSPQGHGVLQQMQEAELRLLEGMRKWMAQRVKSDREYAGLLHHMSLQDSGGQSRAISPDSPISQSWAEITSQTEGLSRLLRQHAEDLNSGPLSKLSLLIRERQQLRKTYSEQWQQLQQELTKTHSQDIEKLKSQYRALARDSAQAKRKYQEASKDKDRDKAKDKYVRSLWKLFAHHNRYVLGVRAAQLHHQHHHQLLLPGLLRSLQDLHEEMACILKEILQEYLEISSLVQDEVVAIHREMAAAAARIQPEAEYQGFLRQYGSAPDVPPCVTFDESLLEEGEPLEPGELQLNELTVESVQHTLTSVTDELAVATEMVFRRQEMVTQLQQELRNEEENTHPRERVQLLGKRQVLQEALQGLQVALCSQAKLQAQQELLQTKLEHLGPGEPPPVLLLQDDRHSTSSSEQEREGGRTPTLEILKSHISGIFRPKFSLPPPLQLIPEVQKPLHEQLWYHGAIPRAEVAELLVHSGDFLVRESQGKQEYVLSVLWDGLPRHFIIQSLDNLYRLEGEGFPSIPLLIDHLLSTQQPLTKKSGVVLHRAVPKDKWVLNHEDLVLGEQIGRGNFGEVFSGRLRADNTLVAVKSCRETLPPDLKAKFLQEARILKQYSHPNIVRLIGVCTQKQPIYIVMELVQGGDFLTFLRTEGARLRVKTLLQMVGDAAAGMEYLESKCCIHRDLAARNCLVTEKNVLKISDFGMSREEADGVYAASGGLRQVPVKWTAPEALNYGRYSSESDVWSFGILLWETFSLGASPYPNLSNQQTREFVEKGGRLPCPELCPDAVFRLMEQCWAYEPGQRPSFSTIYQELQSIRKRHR

Cc1cc(C)c(CNc2nc(Cl)nc3c2ncn3C2CCCC2)c(=O)[nH]1
Activity [1]: Non-Toxic | Activity [2]: 134% | Activity (HCT-116 [3]): 5.57% | Activity [4]: 88% | IC50 (HCT-116 [5]): 0.06 µM | Activity [6]: 105% | viability at 0.025 µM (SW-620 [7]): 61.8% | Activity [8]: 98.5% | Activity [9]: 91% | Activity (Homo sapiens): 123% | Activity [10]: 89.5% | Activity [11]: 112% | Activity [12]: 96.5% | Activity [13]: 132% | inhibition in vivo at 40 mg/kg (HCT-116 [14]): 39.9% | Activity [15]: 110% | Activity [16]: 98% | Activity [17]: 112% | Activity [18]: 112% | Activity [19]: 114% | Activity [20]: 96.5% | viability at 0.1 µM (SW-620 [21]): 66% | Activity [22]: Non-Toxic | Activity [23]: 120% | Activity [24]: 100%
